From patent US20210023089A1, “Compositions Useful for Treating Herpes Simplex Keratitis, and Methods Using Same” (priority 2013, published 2021) come the findings set out here.

Type in all cases: cell-based, HSV-1 (KOS strain)
The test system of test [1] is HSV-1. Briefly: qPCR of viral genome replication in HSV-1 infected hTCEpi cells. The settings on record: for viral genome replication (qPCR): MOI 0.1, inhibitor 10 μM. A general note: Quantitative PCR measures a nucleic acid by following its amplification.
Experimental: The following strains of HSV-1 were used: KOS, ICPO-null, HFEM, and tsB7. Subconfluent monolayers of cells were grown in six-well plates. Drug treatments were administered 45 minutes prior to infection and continued for the entire duration of each experiment. Unless indicated otherwise, KU-55933 (Batch No. 5, 99.7% purity; Tocris Bioscience, Bristol, UK) was used at 10 μM final concentration, phosphonoacetic acid (PAA) at 400 μg/mL (Sigma-Aldrich, St. Louis, Mo.), and acyclovir at 50 μg/mL (Sigma-Aldrich). KU-55933 was dissolved in dimethyl sulfoxide (DMSO), and the final concentration of DMSO in both KU-55933 and mock treatment in the in vitro and the ex vivo experiments was 0.1%.
Infections with KOS strain of HSV-1 were carried out in six-well plates in a 200 μL inoculum volume at 37° C. for 1 hour with intermittent rocking. The cells were then rinsed and overlaid with fresh medium.
Cells were grown in 6-well plates and used in experiments at −80% confluence. Drug treatments were administered 45 min prior to infection and continued for the entire duration of each experiment. Unless indicated otherwise, Chk2 inhibitor II (>98% purity by HPLC) was used at 10 μM final concentration, and phosphonoacetic acid (PAA) at 400 μg/ml (both from Sigma-Aldrich, St. Louis, Mo.). Chk2 inhibitor II was dissolved in DMSO such that the final concentration of DMSO in both Chk2 inhibitor II and mock treatment was 0.1%. Infections with KOS strain of HSV-1 were carried out in 6-well plates in a 200 μl inoculum volume at 37° C. for 1 hour with intermittent rocking. The cells were then thoroughly rinsed and overlaid with fresh medium.
Total DNA from infected cells and corneas was isolated using the DNeasy Blood & Tissue Kit (QIAGEN, Hilden, Germany). Real time quantitative PCR was performed with SYBR Green (Bio-Rad, Hercules, Calif.). Target primers for UL30 (DNA polymerase catalytic subunit) and reference primers for GAPDH were used to measure viral genome abundance. Primer sequences were based on the KOS genome (accession #JQ673480.1).
The subject of test [2] is HSV-1. Briefly: Ex vivo HSV-1 infection of explanted human corneas, qPCR of viral genome. The settings on record: 48 hpi; for viral genome replication in corneal epithelium (qPCR): 1×10^4 PFU/cornea. The method, then:
(§1) Human corneas were obtained from the Lions Eye Bank of Delaware Valley. Rabbit corneas were excised from intact fresh eyeballs of young (8-12 weeks) albino rabbits (Pel-Freez Biologicals, Rogers, Ark.). Protocol (Alekseev et al., 2012, J Vis Exp 69:e3631) for ex vivo corneal culture, infection, and treatment was followed closely. Briefly, corneoscleral buttons were excised and rinsed in PBS containing 200 U/mL penicillin and 200 μg/mL streptomycin. The endothelial concavity was filled with culture medium containing 1% low melting temperature agarose. The corneas were cultured epithelial side up in MEM medium supplemented with nonessential amino acids (1×), 2 mM […], 200 U/mL penicillin, and 200 μg/mL streptomycin. The next day, they were infected with 1×10^4 plaque forming units (PFU)/cornea of strain KOS HSV-1 for 1 hour, rinsed, and overlaid with fresh medium. Drug treatments were administered at the same concentrations as for cultured cells. For KU-55933 bioavailability assessment, corneas were treated with bleomycin (200 μg/mL) for 1 hour. The epithelial cell layer was collected by scraping to isolate DNA or protein. For immunohistochemistry studies, corneas were flash frozen in optimal cutting temperature (OCT) compound, sectioned, and immunostained using standard protocols. Treatment toxicity was assessed by briefly staining the cornea with fluorescein (1% wt/vol in PBS) and imaging the epithelial defects with 464-nm wavelength blue light (LDP LLC, Carlstadt, N.J.).
(§2) Viral genome replication and transcription were measured by quantitative PCR (qPCR). Total DNA and RNA from infected cells were isolated using the DNeasy Blood & Tissue Kit and the RNeasy Mini Kit, respectively (QIAGEN, Hilden, Germany). RNA was converted to cDNA using qScript (Quanta BioSciences, Gaithersburg, Md.). Real-time qPCR was performed with SYBR Green (Bio-Rad, Hercules, Calif.). Target primers for UL30 (DNA polymerase catalytic subunit) and reference primers for glyceraldehyde 3-phosphate dehydrogenase (GAPDH) were used to measure genome replication. Transcription of the three gene families was measured with primers for RL2 (ICPO), UL30 (DNA polymerase catalytic subunit), and UL44 (gC), with reference primers for the 18S ribosomal RNA (rRNA).
Human corneas were obtained from the Lions Eye Bank of Delaware Valley. Rabbit corneas were excised from intact fresh eyeballs of young (8-12 weeks) albino rabbits (Pel-Freez Biologicals, Rogers, Ark.). […]
(§3) Total DNA from infected cells and corneas was isolated using the DNeasy Blood & Tissue Kit (QIAGEN, Hilden, Germany). Real time quantitative PCR was performed with SYBR Green (Bio-Rad, Hercules, Calif.). […]

Test [3] deals with HSV-1. Briefly: Ex vivo HSV-1 infection of explanted rabbit corneas, qPCR of viral genome. The settings on record: for viral genome replication in corneal epithelium (qPCR): 1×10^4 PFU/cornea, 10 μM. The method, then:
as §1, §2
Human corneas were obtained from the Lions Eye Bank of Delaware Valley. Rabbit corneas were excised from intact fresh eyeballs of young (8-12 weeks) albino rabbits (Pel-Freez Biologicals, Rogers, Ark.). The protocol (Alekseev et al., 2012, J. Vis. Exp. e3631) for ex vivo corneal culture and infection was followed, and treatment was administered immediately after infection. Briefly, corneoscleral buttons were excised and rinsed in PBS containing 200 U/ml penicillin and 200 μg/ml streptomycin. The endothelial concavity was filled with culture medium containing 1% low melting temperature agarose. The corneas were cultured epithelial side up in MEM medium supplemented with non-essential amino acids (1×), 2 mM […], 200 U/ml penicillin, and 200 μg/ml streptomycin. The next day, they were infected with 1×10^4 PFU/cornea of strain KOS HSV-1 for 1 hour, rinsed, and overlaid with fresh medium. Drug treatments were administered at the same concentrations as for cultured cells. […]
as §3

For test [4], the system named is HSV-1. Briefly: HSV-1 cytopathic effect in infected hTCEpi cells (phase contrast). The settings on record: MOI 0.1, inhibitor 10 μM, 20 hpi. The method, then: All cells were cultured at 37° C. and 5% CO2 and supplemented with 100 U/mL penicillin and […]. Human corneal epithelial cells immortalized with hTERT (hTCEpi; Robertson, et al., 2005, Invest Ophthalmol Vis Sci. 46:470-478) were grown in complete keratinocyte growth medium 2 (KGM-2; Lonza, Basel, Switzerland). African green monkey kidney fibroblasts (CV-1; American Type Culture Collection, Manassas, Va.) were grown in Dulbecco's modified Eagle's medium (DMEM; Cellgro, Manassas, Va.) supplemented with 10% FBS. The KOS strain of HSV-1 was used in the in vitro and ex vivo infections, whereas McKrae strain was used for in vivo mouse experiments, and TK mutant dlsptk strain (Coen et al., 1989, Proc Natl Acad Sci USA 86:4736-4740) was used in the drug resistance experiments. All viral stocks were titered on CV-1 monolayers.
The following strains of HSV-1 were used: KOS, ICPO-null, HFEM, and tsB7. Subconfluent monolayers of cells were grown in six-well plates. Drug treatments were administered 45 minutes prior to infection and continued for the entire duration of each experiment. Unless indicated otherwise, KU-55933 (Batch No. 5, 99.7% purity; Tocris Bioscience, Bristol, UK) was used at 10 μM final concentration, phosphonoacetic acid (PAA) at 400 μg/mL (Sigma-Aldrich, St. Louis, Mo.), and acyclovir at 50 μg/mL (Sigma-Aldrich). […]

For `NC(=O)c1ccc2[nH]c(-c3ccc(Oc4ccc(Cl)cc4)cc3)nc2c1` [Chk2 inhibitor II, 2-(4-(4-chlorophenoxy)phenyl)-1H-benzimidazole-5-carboxamide], the “viral genome replication (qPCR)” value with HSV-1 [1] (hTCEpi cells) is listed as “profoundly reduced”. Also, the “viral genome levels (qPCR) at high viral load” value in the test with HSV-1 [1] (hTCEpi cells, MOI 5, 10 μM) is recorded as “reduced yet still substantial decrease”. Further, in the test with HSV-1 [2] (human corneas, 10 μM, PAA 400 μg/ml), the “difference in viral genome levels versus positive controls treated with PAA” value is “no statistical significance”. The “viral genome replication in corneal epithelium (qPCR)” value in the test with HSV-1 [2] (human corneas, 10 μM) is recorded as “did not support productive infection”; with HSV-1 [3] (rabbit corneas, 48 hpi), “did not support productive infection”. Moreover, the “HSV-1 inhibition in rabbit compared with human corneas” value with HSV-1 [3] (Chk2 inhibitor II 10 μM, 48 hpi) was “slightly less potent”. In the test with HSV-1 [3] (rabbit corneas, 10 μM for 48 hours, then inhibitor-free medium), the “HSV-1 growth following the removal of inhibitor” value is “resume normal growth”. The “time to which the effect of inhibition was maintained” value in the test on HSV-1 [3] (rabbit corneas, 10 μM for 48 hours, then inhibitor-free medium for 48 hours, latest time point tested) is recorded as not below 96 hpi. In the test on HSV-1 [4], the “cytopathic effect (CPE) of HSV-1” value is on record as “almost completely eliminated”.
On to `O=c1cc(-c2cccc3c2Sc2ccccc2S3)oc(N2CCOCC2)c1` [KU-55933, 2-(morpholin-4-yl)-6-(thianthren-1-yl)-pyran-4-one], for which the “viral genome replication (qPCR)” value with HSV-1 [1] (hTCEpi cells) is given as “sharp reduction”. Also, in the test with HSV-1 [1] (hTCEpi, MOI 0.1, KU-55933 0-7 μM with acyclovir 0-1.5 μg/mL, 16 hpi), the “effect of addition on the dose-response curve of the partner drug” value is given as “shifted the acyclovir dose-response curve to the left”. For the same compound, the “effect on viral genome replication, human compared with rabbit corneas” value with HSV-1 [2] (KU-55933 10 μM) was “more pronounced in human corneas”. The “viral genome replication in corneal epithelium (qPCR)” value is “greatly reduced” in the test with HSV-1 [2] (human corneas, 10 μM) and “greatly reduced” with HSV-1 [3] (rabbit corneas, 48 hpi). Also, the “cytopathic effect (CPE) of HSV-1” value in the test on HSV-1 [4] is recorded as “prevented”.
